Results: ChEMBL document CHEMBL1759889, “Susceptibility and mode of binding of the Mycobacterium tuberculosis cysteinyl transferase mycothiol ligase to tRNA synthetase inhibitors” (Bioorg Med Chem Lett, 2011)
Activity calls are given as the source filed them. The calls are words filed in the database; no cut-off is given here.

Key:
[1] = target: T1, L-cysteine:1D-myo-inositol 2-amino-2-deoxy-alpha-D-glucopyranoside ligase (Mycobacterium tuberculosis) (UniProt P9WJM9); test: Binding affinity to Mycobacterium tuberculosis recombinant MBP-tagged MshC by STD-NMR analysis
T1 sequence (whole entry): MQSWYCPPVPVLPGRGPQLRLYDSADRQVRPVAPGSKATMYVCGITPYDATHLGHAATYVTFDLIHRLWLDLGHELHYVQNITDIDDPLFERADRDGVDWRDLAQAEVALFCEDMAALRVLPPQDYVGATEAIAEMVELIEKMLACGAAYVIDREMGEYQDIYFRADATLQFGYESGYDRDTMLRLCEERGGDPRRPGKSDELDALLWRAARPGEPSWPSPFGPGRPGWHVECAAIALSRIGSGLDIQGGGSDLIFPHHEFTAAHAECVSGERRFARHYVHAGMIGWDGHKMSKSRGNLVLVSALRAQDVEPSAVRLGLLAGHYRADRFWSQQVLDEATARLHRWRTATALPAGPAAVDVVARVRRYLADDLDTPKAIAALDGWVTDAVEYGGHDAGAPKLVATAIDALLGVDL

[2] = target: T2, L-cysteine:1D-myo-inositol 2-amino-2-deoxy-alpha-D-glucopyranoside ligase (Mycobacterium tuberculosis, UniProt P9WJM9); test: Inhibition of Mycobacterium tuberculosis recombinant MBP-tagged MshC assessed as formation of fluorescently labeled Cys-GlcN-Ins by HPLC
T2 sequence (P9WJM9 whole entry): T1 sequence (whole entry)

[3] = target: T1, L-cysteine:1D-myo-inositol 2-amino-2-deoxy-alpha-D-glucopyranoside ligase (Mycobacterium tuberculosis); test: Binding affinity to Mycobacterium tuberculosis recombinant MBP-tagged MshC by transferred NOESY analysis
[4] = target: T2, L-cysteine:1D-myo-inositol 2-amino-2-deoxy-alpha-D-glucopyranoside ligase; test: Binding affinity to Mycobacterium tuberculosis recombinant MBP-tagged MshC by isothermal titration calorimetry assay

Nc1ncnc2c1ncn2[C@@H]1O[C@H](COS(=O)(=O)NC(=O)[C@@H](N)CC(=O)O)[C@@H](O)[C@H]1O was tested, and the Activity [1] was “inactive”, the IC50 [2] was 1200 µM and the Activity [3] was “inactive”.
With N[C@H]1CCC[C@H]1C(=O)O the IC50 [2] was greater than 4000 µM.
In the case of Nc1ncnc2c1ncn2[C@@H]1O[C@H](COS(=O)(=O)NC(=O)[C@@H](N)CS)[C@@H](O)[C@H]1O, the Activity [1] is reported as “inactive”, the IC50 [2] is reported as 0.05 µM and the Kd [4] is reported as 0.0485 µM.
With C[C@@H]1C[C@H](C)C[C@H](C)[C@@H](O)CC(=O)O[C@H]([C@@H]2CCC[C@H]2C(=O)O)C/C=C/C=C(/C#N)[C@H](O)[C@@H](C)C1 [BORRELIDIN] the IC50 [2] was greater than 2000 µM.
Compound C/C(=C\C(=O)OCCCCCCCCC(=O)O)C[C@@H]1OC[C@H](C[C@@H]2O[C@H]2[C@@H](C)[C@H](C)O)[C@@H](O)[C@H]1O [MUPIROCIN] has an IC50 [2] greater than 5000 µM.
Compound Nc1ncnc2c1ncn2[C@@H]1O[C@H](COS(=O)(=O)NC(=O)[C@@H](N)CO)[C@@H](O)[C@H]1O has an IC50 [2] of 5000 µM.
C[C@@H]1Cc2c(Cl)cc(C(=O)N[C@@H](Cc3ccccc3)C(=O)O)c(O)c2C(=O)O1 [3R14S-OCHRATOXIN A] showed an IC50 [2] of 2500 µM.
